The test system of one assay is NCI60. Put plainly: Cytotoxicity against human NCI60 cells. The format is functional, cell-based.
Another assay has as its system DU-145. The assay is described as follows: Cytotoxicity against human DU145 cells. The format is functional. Particulars: read-out: ED50 (the source's name).

The source made the active and inactive calls. The rule behind the calls is not given here.

Results on 1 compound are retold here after ChEMBL document CHEMBL1159238, “Brevitaxin, a new diterpenolignan from the bark of Taxus brevifolia” (1995).

As to `COc1cc([C@@H]2Oc3c(C(C)C)cc4c(=O)cc5c(cc4c3O[C@H]2CO)C=CC(=O)C5(C)C)ccc1O` [BREVITAXIN], the result with NCI60 was Active. Moreover, the EC50 with DU-145 came out at 6.8 µM.
